Patent EP3860599B1, “(+)-ALPHA-DIHYDROTETRABENAZINE DOSAGE REGIMEN FOR TREATING MOVEMENT DISORDERS” (Adeptio Pharmaceuticals Limited, priority 2018, dated 2020)
Where two headings read alike, the source gives them in different places.

What was measured:
Assay type in all cases: in vivo
[1] = Plasma concentrations up to 7 hours after oral dosing of human volunteers, Example 1B; conditions: 7.5 mg
Method: Volunteers 1 and 2 were the same as volunteers 1 and 2 in Example 1A described above. […] In addition, in all volunteers PET scans were initiated at 6 hours after drug administration and these were stopped at 7 hours after drug administration. […]

[2] = test system: amphetamine-induced rats; test: Open field locomotor activity test in amphetamine-induced rats (Example 2, Studies 1, 2 and 4)
Method: (§1) All animal experiments were carried out according to the National Institute of Health (NIH) guidelines for the care and use of laboratory animals, and approved by the National Animal Experiment Board, Finland. Male CD (Charles River Laboratories, Germany) at weight range of 200-250 g (165-200 g upon arrival) were used for the experiments. Animals were housed at a standard temperature (22 ± 1°C) and in a light-controlled environment (lights on from 7 am to 8 pm) with ad libitum access to food and water.
(§2) Locomotor activity of the rats was tested in open field arena. The open field test was performed during the rat light cycle and under a normal lighting evenly distributed to the test chambers. The paths of the rats were recorded by activity monitor (Med. Associates Inc.).
(§3) Dosing the vehicle, vehicle-amphetamine, (+)-α-DHTBZ or risperidone was done prior to LMA test. The rats were placed in the centre of the arena, and the path was recorded for 60 minutes.
Animals were grouped as follows: • Group 1: 10 rats treated with Vehicle (t= 0 min) and Vehicle (t= 30 min) • Group 2: 10 rats treated with Vehicle (t= 0 min) and Amphetamine (t= 30 min) • Group 3: 10 rats treated with (+)-α-DHTBZ 0.5 mg/kg (t=0 min) and Amphetamine (t= 30 min) • Group 4: 10 rats treated with (+)-α-DHTBZ 1 mg/kg (t=0 min) and Amphetamine (t= 30 min) • Group 5: 10 rats treated with (+)-α-DHTBZ 1.5 mg/kg (t=0 min) and Amphetamine (t= 30 min) • Group 6: 10 rats treated with (+)-α-DHTBZ 2 mg/kg (t=0 min) and Amphetamine (t= 30 min) • Group 7: 10 rats treated with risperidone 1 mg/kg (t=0 min) and Amphetamine (t= 30 min)
Animals were grouped as follows: • Group 1: 10 rats treated with Vehicle (t= 0 min) and Vehicle (t= 30 min) • Group 2: 10 rats treated with Vehicle (t= 0 min) and Amphetamine (t= 30 min) • Group 3: 10 rats treated with (+)-α-DHTBZ 0.1 mg/kg (t=0 min) and Amphetamine (t=30 min) • Group 4: 10 rats treated with (+)-α-DHTBZ 0.25 mg/kg (t=0 min) and Amphetamine (t=30 min) • Group 5: 10 rats treated with risperidone 1 mg/kg (t=0 min) and Amphetamine (t= 30 min)
Animals were grouped as follows: • Group 1: 10 rats treated with Vehicle (t= 0 min) and Vehicle (t= 30 min) • Group 2: 10 rats treated with Vehicle (t= 0 min) and Amphetamine (t= 30 min) • Group 3: 10 rats treated with (+)-α-DHTBZ 1 mg/kg (t=0 min) and Amphetamine (t=30 min) • Group 4: 10 rats treated with (+)-α-DHTBZ 1.5 mg/kg (t=0 min) and Amphetamine (t=30 min) • Group 5: 10 rats treated with Valbenazine 1 mg/kg (t=0 min) and Amphetamine (t=30 min) • Group 6: 10 rats treated with Valbenazine 1.5 mg/kg (t=0 min) and Amphetamine (t=30 min) • Group 7: 10 rats treated with risperidone 1 mg/kg (t=0 min) and Amphetamine (t= 30 min)

[3] = test system: non-amphetamine induced rats; test: Open field locomotor activity test in rats without amphetamine induction (Example 2, Study 3); conditions: 2.5 mg/kg or 5 mg/kg
Method: as §1, §2, §3
Animals were grouped as follows: • Group 1: 10 rats treated with Vehicle • Group 2: 10 rats treated with (+)-α-DHTBZ 2.5 mg/kg • Group 3: 10 rats treated with (+)-α-DHTBZ 5 mg/kg • Group 4: 10 rats treated with risperidone 1 mg/kg

[4] = po, Example 1B subject 1 (112 kg), 7.5 mg oral
[5] = po, Example 1B subject 2 (76 kg), 7.5 mg oral
[6] = po, Example 1B subject 3 (76 kg), 7.5 mg oral
[7] = po, Example 1B subject 4 (95 kg), 7.5 mg oral
[8] = po, Example 1B subject 5 (99 kg), 7.5 mg oral
[9] = po, Example 1B subject 6 (107 kg), 7.5 mg oral
[10] = Study 1 conclusions, all the tested doses (0.5, 1, 1.5 and 2 mg/kg)

**Q.** With `COc1cc2c(cc1OC)[C@H]1C[C@@H](O)[C@H](CC(C)C)CN1CC2` [(+)-α-dihydrotetrabenazine, (R,R,R)-3-isobutyl-9,10-dimethyloxy-1,3,4,5,7,11b-hexahydro-2H-pyrido[2,1-a]isoquinolin-2-ol] as the compound, how does the concentration at 6 h ([1]; oral, after 6 hours following administration of 7.5mg, read-out: blood plasma concentrations) read?
**A.** < 15 ng/mL

**Q.** What about the concentration at 2 h [1, 4] of the same compound?
**A.** 8.7 ng/mL

**Q.** What about the concentration at 4 h [1, 4] of the same compound?
**A.** 6.01 ng/mL

**Q.** What about the concentration at 6 h ([1]; po, Example 1B subject 1 (112 kg), 7.5 mg oral, 6 h, read-out: plasma concentrations) of the same compound?
**A.** 4.54 ng/mL

**Q.** And the concentration at 7 h [1, 4]?
**A.** 3.65 ng/mL

**Q.** What about the concentration at 2 h [1, 5] of the same compound?
**A.** 11.7 ng/mL

**Q.** What about the concentration at 4 h [1, 5] of the same compound?
**A.** 17.5 ng/mL

**Q.** What about the concentration at 6 h ([1]; po, Example 1B subject 2 (76 kg), 7.5 mg oral, 6 h, read-out: plasma concentrations) of the same compound?
**A.** 13.4 ng/mL

**Q.** What about the concentration at 7 h [1, 5] of the same compound?
**A.** 11.6 ng/mL

**Q.** What about the concentration at 2 h [1, 6] of the same compound?
**A.** 12.8 ng/mL

**Q.** And the concentration at 4 h [1, 6]?
**A.** 7.92 ng/mL

**Q.** And the concentration at 6 h ([1]; po, Example 1B subject 3 (76 kg), 7.5 mg oral, 6 h, read-out: plasma concentrations)?
**A.** 5.57 ng/mL

**Q.** What about the concentration at 7 h [1, 6] of the same compound?
**A.** 4.84 ng/mL

**Q.** And the concentration at 1 h [1, 7]?
**A.** 21.4 ng/mL

**Q.** And the concentration at 2 h [1, 7]?
**A.** 13.9 ng/mL

**Q.** And the concentration at 3 h [1, 7]?
**A.** 10.6 ng/mL

**Q.** And the concentration at 4 h [1, 7]?
**A.** 7.81 ng/mL

**Q.** And the concentration at 5 h [1, 7]?
**A.** 6.59 ng/mL

**Q.** What about the concentration at 6 h ([1]; po, Example 1B subject 4 (95 kg), 7.5 mg oral, 6 h, read-out: plasma concentrations) of the same compound?
**A.** 4.92 ng/mL

**Q.** What about the concentration at 7 h [1, 7] of the same compound?
**A.** 4.91 ng/mL

**Q.** And the concentration at 1 h [1, 8]?
**A.** 5.64 ng/mL

**Q.** And the concentration at 2 h [1, 8]?
**A.** 7.59 ng/mL

**Q.** And the concentration at 3 h [1, 8]?
**A.** 5.84 ng/mL

**Q.** What about the concentration at 4 h [1, 8] of the same compound?
**A.** 4.58 ng/mL

**Q.** And the concentration at 5 h [1, 8]?
**A.** 3.66 ng/mL

**Q.** What about the concentration at 6 h ([1]; po, Example 1B subject 5 (99 kg), 7.5 mg oral, 6 h, read-out: plasma concentrations) of the same compound?
**A.** 3.35 ng/mL

**Q.** And the concentration at 7 h [1, 8]?
**A.** 2.47 ng/mL

**Q.** What about the concentration at 1 h [1, 9] of the same compound?
**A.** 4.86 ng/mL

**Q.** And the concentration at 2 h [1, 9]?
**A.** 6.3 ng/mL

**Q.** And the concentration at 3 h [1, 9]?
**A.** 6.69 ng/mL

**Q.** What about the concentration at 4 h [1, 9] of the same compound?
**A.** 5.61 ng/mL

**Q.** And the concentration at 5 h [1, 9]?
**A.** 5.19 ng/mL

**Q.** And the concentration at 6 h ([1]; po, Example 1B subject 6 (107 kg), 7.5 mg oral, 6 h, read-out: plasma concentrations)?
**A.** 4.44 ng/mL

**Q.** And the concentration at 7 h [1, 9]?
**A.** 3.36 ng/mL

**Q.** What about the “locomotor activity when compared to the vehicle-amphetamine group” value [2, 10] of the same compound?
**A.** lower locomotor activity

**Q.** What about the “stereotypic behaviour when compared to the vehicle-amphetamine group” value [2, 10] of the same compound?
**A.** reduced stereotypic behaviour

**Q.** What about the “locomotor activity when compared to the vehicle-amphetamine group” value ([2]; Study 2 conclusions, 0.25 mg/kg) of the same compound?
**A.** lower locomotor activity

**Q.** What about the “stereotypic behaviour when compared to the vehicle-amphetamine group” value ([2]; Study 2 conclusions, both the tested doses (0.1 mg/kg and 0.25 mg/kg)) of the same compound?
**A.** reduced stereotypic behaviour

**Q.** And the “locomotor activity when compared to the vehicle-amphetamine group and the corresponding dose of Valbenazine” value ([2]; Study 4 conclusions, 1 mg/kg and 1.5 mg/kg)?
**A.** lower locomotor activity

**Q.** What about the “stereotypic behaviour when compared to the vehicle-amphetamine group and the corresponding dose of Valbenazine” value ([2]; Study 4 conclusions, both the tested doses (1 mg/kg and 1.5 mg/kg)) of the same compound?
**A.** reduced stereotypic behaviour

**Q.** And the “stereotypic behaviour versus rats treated with the vehicle” value [3]?
**A.** comparable

**Q.** And the “total movement versus rats treated with the vehicle” value [3]?
**A.** comparable
